# From patent publication US20080279843A1, “Method For Improving Insulin Sensitivity By Administering an Inhibitor of Antitrypsin” (Essential SkinCare, LLC, priority 2003, published 2008)
# Key:
# [1] = test system: C57/Black female mice; test: Glucose tolerance test with insulin and purified AT (Example 3); type: in vivo; details: highly purified AT 1.2 mg/mouse i.p. 24 h prior to insulin; glucose 3 g/kg i.p.
# Method: C57/Black female mice weighing 23-25 g were fasted for 16 hours. Five animals were used for each of the three treatment groups. The first treatment group received intraperitoneal injections of 1200 μg purified AT, i.e. AT purified by the procedure of Example 1. Exactly 23 hours and 45 minutes after the AT was administered to the first treatment group, the animals in the first and second treatment group received 0.5 I.U. of insulin. Exactly 15 minutes after the insulin was administered (i.e., 24 hours after AT was administered to the first treatment group), glucose (3 g/kg) was injected intraperitoneally into the first, second and third treatment group. Blood samples were immediately measured with the fast Glucose C test (Wako Chemicals Inc. Richmond, Va., USA). The data presented are the mean ±S.D. of five determinations, one with each animal.
# [2] = test system: C57/Black female mice; test: Glucose tolerance test with purified AT alone (Example 4); type: in vivo; details: mice fasted 24 h; for Glucose level: purified AT 1200 μg i.p. 24 h before glucose 3 g/kg i.p., mean ± S.D., n=4
# Method: C57/Black female mice, weighing 22-25 g were fasted for 24 hours. Four animals were used for each of two groups. The first group received intraperitoneal injections of 1200 μg purified AT, i.e. AT purified by the procedure of Example 1. Exactly 24 hours after the AT was administered to the first group, glucose (3 g/kg) was injected intraperitoneally into mice in both groups. Blood samples were immediately measured with the fast Glucose C test (Wako Chemicals Inc. Richmond, Va., USA). The experiment was repeated a second time.
# The data presented for each experiment are the mean ±S.D. of four determinations, one with each animal.
# [3] = test system: differentiated rat L6 muscle cells; test: Cellular uptake of D-[14C]glucose; type: cell-based
# Method: (§1) Rat L6 skeletal muscle cells were obtained from the American Type Culture Collection, Rockville, Md. L6 cell monolayers were induced to differentiate in Minimal Essential Medium (MEM) containing 2% (v/v) fetal bovine serum (FBS) and 1% (v/v) antibiotic/antimycotic solution. The cells were fed fresh medium every 48 hours. Myoblast differentiation, which occurred by about the 7-9th day, was monitored by phase contrast microscopy. Differentiated L6 cells are widely used models for studying glucose metabolism in the skeletal muscle. The present study was focused on these cells, because skeletal muscle accounts for about 70-80% of total blood glucose metabolism in the human body.
# To examine cellular glucose uptake and metabolism, differentiated (attached) cells in 12-well plates were incubated at 37° C. in a CO2 incubator (95% air: 5% CO2) with D-[^14C]glucose (1 μCi/mL) in 2% FBS-containing medium containing 5.5 mM unlabeled glucose for 0.5-6 hours as indicated at the corresponding Figures. At the termination of incubation, the medium was removed. An aliquot of the medium was taken to determine the loss of [^14C]glucose from the medium which corresponds to its uptake by cells. Cells were washed twice with 3 ml medium to remove traces of medium containing unincorporated radioactivity. Ice-cold 99.8% methanol/0.2% water (v/v) mixture (1 ml) was then added to the monolayers and cells were extracted for 2 hours at −20° C. […] The methanol phase (1 ml) and a following 1 ml methanol wash were added to 2 ml chloroform followed by the addition of 3 ml water. Of the resulting two phases (separation was facilitated by brief centrifugation), the lower phase contained the total radiolabeled lipids, while the upper phase contained [^14C]glucose.
# Aliquots of the upper and lower phases were taken to scintillation vials to determine the amounts of radiolabeled glucose and total lipids, respectively, by liquid scintillation counting. Precipitated [^14C]glycogen was suspended in 0.75 ml of 1 M NaOH and transferred to scintillation vial. This procedure was repeated with another 0.75 ml aliquot of NaOH. To neutralize the suspension, […] (approximately 150 μL) was then added to the vials, followed by the addition of 8.5 ml Ecolume (scintillation fluid). While the 1 M NaOH suspension contained some particulate material (mostly protein which was not labeled with radiolabeled glucose), no precipitate remained in the suspension after addition of Ecolume. […] No additional radioactivity could be removed from the well by neutralized 30% KOH.
# Three groups of differentiated L6 cells, incubated in 12-well plates in 2% FBS-containing medium, were treated as follows. A first control group ([…]) was untreated. A second group (▴) was treated with 500 nM insulin for 30 min. A third group (▪) was treated first with 0.4 mg/ml of AT followed by an addition of 500 nM insulin for 30 min. Following the addition of D-[^14C]glucose, each group was incubated in the continuous presence of insulin and AT, as described above, for 0.5-6 hours.
# Four groups of differentiated L6 cells, incubated in 12-well plates in 2% FBS-containing medium, were treated as follows. A first control group was untreated. A second group was treated with 500 nM insulin for 30 min. A third group was treated with 0.05 to 0.4 mg/ml of AT for 10 min. Finally, a fourth group was treated with 0.05 to 0.4 mg/ml of AT for 10 min followed by the addition of 500 nM insulin for 30 min. […]
# [4] = test system: differentiated rat L6 muscle cells; test: Synthesis of [14C]total lipid from radiolabeled glucose; type: cell-based; details: FIG. 4C, 5 hours
# Method: as §1
# To examine cellular glucose uptake and metabolism, differentiated (attached) cells in 12-well plates were incubated at 37° C. in a CO2 incubator (95% air: 5% CO2) with D-[^14C]glucose (1 μCi/mL) in 2% FBS-containing medium containing 5.5 mM unlabeled glucose for 0.5-6 hours as indicated at the corresponding Figures. […] Cells were washed twice with 3 ml medium to remove traces of medium containing unincorporated radioactivity. […]
# Aliquots of the upper and lower phases were taken to scintillation vials to determine the amounts of radiolabeled glucose and total lipids, respectively, by liquid scintillation counting. […] No additional radioactivity could be removed from the well by neutralized 30% KOH. […]
# [5] = highly purified AT 1200 μg i.p. 24 h before glucose 3 g/kg i.p.
substance,measurement,setting,value
α1-antitrypsin [AT],Effect of AT on the action of insulin on blood glucose level,[1],blocked the action of insulin
same,Glucose level,"[2]; Experiment 1, 0 min",2.3 ± 0.3 mM
same,Glucose level,"[2]; Experiment 1, 30 min",8.5 ± 0.6 mM
same,Glucose level,"[2]; Experiment 1, 60 min",7.1 ± 0.5 mM
same,Glucose level,"[2]; Experiment 1, 120 min",6.1 ± 0.4 mM
same,Glucose level,"[2]; Experiment 1, 180 min",4.7 ± 0.5 mM
same,Glucose level,"[2]; Experiment 2, 0 min",2.7 ± 0.3 mM
same,Glucose level,"[2]; Experiment 2, 30 min",7.9 ± 0.3 mM
same,Glucose level,"[2]; Experiment 2, 60 min",6.5 ± 0.5 mM
same,Glucose level,"[2]; Experiment 2, 120 min",5.9 ± 0.4 mM
same,Glucose level,"[2]; Experiment 2, 180 min",4.5 ± 0.4 mM
same,Effect of AT on blood glucose level in the first 60 min after glucose,[2]; [5],no major effects in the first 60 min
same,Effect of AT on return of blood glucose level to near-normal level during the next 120 min,[2]; [5],clearly delayed return of blood glucose level to near-normal level
same,"Effect of AT on the insulin effect on cellular [14C]glucose, short incubation","[3]; 0.4 mg/ml AT, 500 nM insulin, 30 min incubation",no such inhibitory effects
same,Effect of AT on insulin-stimulated uptake of D-[14C]glucose,"[3]; FIG. 3A, 0.4 mg/ml purified AT, incubations for 2 hrs or 6 hours",inhibited both insulin effects
same,Effect of AT on cellular level of [14C]glucose in the absence of insulin,"[3]; FIG. 4A, 0.05 to 0.4 mg/ml AT, 5 hours",did not significantly affect
same,Decrease of cellular level of [14C]glucose by AT in the presence of insulin,"[3]; FIG. 4A, 0.2 to 0.4 mg/ml AT, 500 nM insulin, 5 hours",at least 50%
same,Effect of AT on cellular level of [14C]total lipid in the absence of insulin,[4]; 0.05 to 0.4 mg/ml AT,did not significantly affect
same,Decrease of synthesis of [14C]total lipid by AT in the presence of insulin,"[4]; 0.2 to 0.4 mg/ml AT, 500 nM insulin",at least 50%
